The values that follow are results of earlier work, collected in patent US20170326166A1, “COMPOSITIONS AND METHODS FOR TREATING PITUITARY TUMORS” (University of Virginia Patent Foundation, priority 2014, published 2017).

Data set [1] has as its system cancer cells. The following applies: in cancer cells; trapped in the cytosol.
The test system of data set [2] is cancer cells. The following applies: cancer cells compared to their normal counterpart cells or other normal cells.

For the compound `O=CC[C@@H](O)[C@H](O)[C@H](O)COP(=O)(O)O` [2-deoxyglucose 6-phosphate], the intracellular half-life result in data set [1] is given as “approximately 50 minutes”. For the compound `O=CC[C@@H](O)[C@H](O)[C@H](O)CO` [2DG, 2-Deoxy-D-glucose], the accumulation in cells entry in data set [2] is recorded as “accumulates predominantly in cancer cells”.
